Reference: patent US20210130401A1, “PEPTIDOMIMETIC INHIBITORS OF THE WDR5-MLL INTERACTION” (THE REGENTS OF THE UNIVERSITY OF MICHIGAN, priority 2017, published 2021)
Read-outs that look alike come from different tables or passages of the source. Starred links: 1 amine or outer side, 2 acyl side, 3 side chain; linkers in the order of their positions; H or OH if unused. Positions of bridges follow the written chain, without caps; N, C: chain ends. Non-standard residues stand in square brackets, D forms with d. Residues, ends and D or L forms follow the SMILES beside them. *: point of attachment. Arg(Nω,Nω'-propylene) = N[C@@H](CCCNC1=NCCCN1)C(=O)O; Orn(2-imidazolinyl) = N[C@@H](CCCNC1=NCCN1)C(=O)O; dαMeDab = C[C@](CCN[*:3])(N[*:1])C(=O)[*:2]; dPhg(4-F) = N[C@@H](C(=O)O)c1ccc(F)cc1; dPhg(2-F) = N[C@@H](C(=O)O)c1ccccc1F; dPhg = N[C@@H](C(=O)O)c1ccccc1; Isobutyryl = CC(C)C(=O)*; Nva = CCC[C@H](N)C(=O)O; Abu = CC[C@H](N)C(=O)O

Assays:
[1] = rcm bond, CH2Cl2, 3 steps
WDR5 = target: T1, WDR5 (Homo sapiens, UniProt P61964); assay: fluorescence polarization (FP) based competitive binding assay to WDR5 protein
T1 construct: N-terminal His-tagged WDR5 protein (residues 24-334), named WDR5Δ23; made in house; host or cells: E. coli Rosetta 2 (DE3)
Experimental: The plates were incubated at room temperature on a shaker for 3h, and then the mP values were measured using the Tecan Infinite M-1000 plate reader (Tecan U.S., Research Triangle Park, N.C.).

[2] = tested on: MOLM-13 leukemia cells carrying MLL-AF9 fusion; assay: cell viability assay (WST-8), MOLM-13; format: cell-based; details: Homo sapiens, MOLM-13, 96 h, read-out: MOLM-13 IC50 (μM)
Experimental: To assess cell viability, MOLM-13 leukemia cells carrying MLL-AF9 fusion, MV4;11 leukemia cells carrying MLL-AF4 fusion or HL-60 leukemia cells carrying no MLL fusion were seeded 1×10^4 cell/well in 96-well plates and treated with an inhibitor for 4 days at different concentrations, in culture media containing 0.2% DMSO as the final concentration. Cell viability was determined using the WST-8 cell proliferation assay kit (Dojindo Molecular Technologies) according to manufacturer's instructions. Three independent experiments in triplicates were performed.

| Compound | IC50 (WDR5) | Ki (WDR5) | IC50 [2] | further results |
| --- | --- | --- | --- | --- |
| CC[C@@H]1NC(=O)[C@H](CCCN/C(=N\C)NC)NC(=O)[C@](C)(NC(=O)C(C)C)CC=CCNC(=O)[C@@H](c2ccccc2)NC1=O |  |  |  | ring closure, yield after HPLC ([1]; from (R)—N-((8S,11S,14R,Z)-11-ethyl-3-(methylamino)-9,12,15-trioxo-14-phenyl-2,4,10,13,16-pentaazanonadeca-2,18-dien-8-yl)-2-isobutyramido-2-methylpent-4-enamide, 16-membered ring, Hoveyda-Grubbs II (0.5 eq), 25.0 °C): 27% |
| CC[C@@H]1NC(=O)[C@H](CCCN/C(=N\C)NS(=O)(=O)c2c(C)c(C)c3c(c2C)CC(C)(C)O3)NC(=O)[C@](C)(NC(=O)C(C)C)CC=CCNC(=O)[C@@H](c2ccccc2)NC1=O |  |  |  | ring closure, yield after HPLC ([1]; from (R)—N-((8S,11S,14R,E)-11-ethyl-9,12,15-trioxo-3-(2,2,4,6,7-pentamethyl-2,3-dihydrobenzofuran-5-sulfonamido)-14-phenyl-2,4,10,13,16-pentaazanonadeca-2,18-dien-8-yl)-2-isobutyramido-2-methylpent-4-enamide, 16-membered ring, Hoveyda-Grubbs II (0.5 eq), 25.0 °C): 75% |
| CC[C@@H]1NC(=O)[C@H](CCCNC(=N)NS(=O)(=O)c2c(C)c(C)c3c(c2C)CC(C)(C)O3)NC(=O)[C@](C)(NC(=O)C(C)C)CC=CCCCCCNC(=O)[C@@H](c2ccccc2)NC1=O |  |  |  | ring closure, yield after HPLC ([1]; from iPrCO-(R)-αMe-allylGly-Arg(Pbf)-Abu-dPhg-NH-(hept-6-enyl)?, 20-membered ring, Hoveyda-Grubbs II (0.5 eq), 25.0 °C): 27% |
| CC[C@@H]1NC(=O)[C@H](CCCNC(=N)NS(=O)(=O)c2c(C)c(C)c3c(c2C)CC(C)(C)O3)NC(=O)[C@](C)(NC(=O)C(C)C)CC=CCCNC(=O)[C@@H](c2ccccc2)NC1=O |  |  |  | ring closure, yield after HPLC ([1]; from iPrCO-(R)-αMe-allylGly-Arg(Pbf)-Abu-dPhg-NH-(but-3-enyl)?, 17-membered ring, Hoveyda-Grubbs II (0.5 eq), 25.0 °C): 28% |
| CC[C@@H]1NC(=O)[C@H](CCCNC(=N)NS(=O)(=O)c2c(C)c(C)c3c(c2C)CC(C)(C)O3)NC(=O)[C@](C)(NC(=O)C(C)C)CC=CCN(C)C(=O)[C@@H](c2ccc(Cl)cc2)NC1=O |  |  |  | ring closure, yield after HPLC ([1]; from (R)—N-((6S,9S,12R)-12-(4-chlorophenyl)-9-ethyl-1-imino-14-methyl-7,10,13-trioxo-1-(2,2,4,6,7-pentamethyl-2,3-dihydrobenzofuran-5-sulfonamido)-2,8,11,14-tetraazaheptadec-16-en-6-yl)-2-isobutyramido-2-methylpent-4-enamide, 16-membered ring, Hoveyda-Grubbs II (0.5+0.5 eq), 45.0 °C): 11% |
| CC[C@@H]1NC(=O)[C@H](CCCNC(=N)NS(=O)(=O)c2c(C)c(C)c3c(c2C)CC(C)(C)O3)NC(=O)[C@](C)(NC(=O)C(C)C)CC=CCN(C)C(=O)[C@@H](c2ccc(F)cc2)NC1=O |  |  |  | ring closure, yield after HPLC ([1]; from (R)—N-((6S,9S,12R)-9-ethyl-12-(4-fluorophenyl)-1-imino-14-methyl-7,10,13-trioxo-1-(2,2,4,6,7-pentamethyl-2,3-dihydrobenzofuran-5-sulfonamido)-2,8,11,14-tetraazaheptadec-16-en-6-yl)-2-isobutyramido-2-methylpent-4-enamide, 16-membered ring, Hoveyda-Grubbs II (0.5+0.5 eq), 45.0 °C): 11% |
| CC[C@@H]1NC(=O)[C@H](CCCNC(=N)NS(=O)(=O)c2c(C)c(C)c3c(c2C)CC(C)(C)O3)NC(=O)[C@](C)(NC(=O)C(C)C)CC=CCN(C)C(=O)[C@@H](c2ccccc2)NC1=O |  |  |  | ring closure, yield after HPLC ([1]; from (R)—N-((6S,9S,12R)-9-ethyl-1-imino-14-methyl-7,10,13-trioxo-1-(2,2,4,6,7-pentamethyl-2,3-dihydrobenzofuran-5-sulfonamido)-12-phenyl-2,8,11,14-tetraazaheptadec-16-en-6-yl)-2-isobutyramido-2-methylpent-4-enamide, 16-membered ring, Hoveyda-Grubbs II (0.5+0.5 eq), 45.0 °C): 18% |
| CC[C@@H]1NC(=O)[C@H](CCCNC2=NCCN2)NC(=O)[C@](C)(NC(=O)C(C)C)CCNC(=O)[C@@H](c2ccccc2)NC1=O [Cpd. No. 17, N-((3R,6S,9S,12R)-9-(3-((4,5-dihydro-1H-imidazol-2-yl)amino)propyl)-6-ethyl-12-methyl-2,5,8,11-tetraoxo-3-phenyl-1,4,7,10-tetraazacyclotetradecan-12-yl)isobutyramide] (Isobutyryl-[dαMeDab][Orn(2-imidazolinyl)][Abu][dPhg]; lactam 1-C) | 2.4 nM | < 1 nM | 0.088 µM |  |
| CC[C@@H]1NC(=O)[C@H](CCCNC(=N)N)NC(=O)[C@](C)(NC(=O)C(C)C)CCNC(=O)[C@@H](c2ccc(F)cc2)NC1=O [Cpd. No. 53, N-((3R,6S,9S,12R)-6-ethyl-3-(4-fluorophenyl)-9-(3-guanidinopropyl)-12-methyl-2,5,8,11-tetraoxo-1,4,7,10-tetraazacyclotetradecan-12-yl)isobutyramide] (Isobutyryl-[dαMeDab]R[Abu][dPhg(4-F)]; lactam 1-C) | 0.878 nM | < 1 nM | 0.38 µM |  |
| CC[C@@H]1NC(=O)[C@H](CCCNC(=N)N)NC(=O)[C@](C)(NC(=O)C(C)C)CCNC(=O)[C@@H](c2ccccc2F)NC1=O [Cpd. No. 79, N-((3R,6S,9S,12R)-6-ethyl-3-(2-fluorophenyl)-9-(3-guanidinopropyl)-12-methyl-2,5,8,11-tetraoxo-1,4,7,10-tetraazacyclotetradecan-12-yl)isobutyramide] (Isobutyryl-[dαMeDab]R[Abu][dPhg(2-F)]; lactam 1-C) | 0.32 nM | < 1 nM | 0.35 µM |  |
| CC[C@@H]1NC(=O)[C@H](CCCNC(=N)N)NC(=O)[C@](C)(NC(=O)C(C)C)CCNC(=O)[C@@H](c2cccc(F)c2)NC1=O [Cpd. No. 80, N-((3R,6S,9S,12R)-6-ethyl-3-(3-fluorophenyl)-9-(3-guanidinopropyl)-12-methyl-2,5,8,11-tetraoxo-1,4,7,10-tetraazacyclotetradecan-12-yl)isobutyramide] | 2.87 nM | < 1 nM | 0.42 µM |  |
| CC[C@@H]1NC(=O)[C@H](CCCNC(=N)N)NC(=O)[C@](C)(NC(=O)C(C)C)CCNC(=O)[C@@H](c2ccc3ccccc3c2)NC1=O [Cpd. No. 82, N-((3R,6S,9S,12R)-6-ethyl-9-(3-guanidinopropyl)-12-methyl-3-(naphthalen-2-yl)-2,5,8,11-tetraoxo-1,4,7,10-tetraazacyclotetradecan-12-yl)isobutyramide] | 2.3 nM | < 1 nM | 0.054 µM |  |
| CC[C@@H]1NC(=O)[C@H](CCCNC(=N)N)NC(=O)[C@](C)(NC(=O)C(C)C)CCNC(=O)[C@@H](c2cccc(Cl)c2)NC1=O [Cpd. No. 84, N-((3R,6S,9S,12R)-3-(3-chlorophenyl)-6-ethyl-9-(3-guanidinopropyl)-12-methyl-2,5,8,11-tetraoxo-1,4,7,10-tetraazacyclotetradecan-12-yl)isobutyramide] | 1.48 nM | < 1 nM | 0.51 µM |  |
| CCC[C@@H]1NC(=O)[C@H](CCCNC(=N)N)NC(=O)[C@](C)(NC(=O)C(C)C)CCNC(=O)[C@@H](c2ccccc2)NC1=O [Cpd. No. 88, N-((3R,6S,9S,12R)-9-(3-guanidinopropyl)-12-methyl-2,5,8,11-tetraoxo-3-phenyl-6-propyl-1,4,7,10-tetraazacyclotetradecan-12-yl)isobutyramide] (Isobutyryl-[dαMeDab]R[Nva][dPhg]; lactam 1-C) | 2.38 nM | < 1 nM | 6.33 µM |  |
| CC(C)C(=O)N[C@]1(C)CCNC(=O)[C@@H](c2ccccc2)NC(=O)[C@H](C(C)C)NC(=O)[C@H](CCCNC(=N)N)NC1=O [Cpd. No. 89, N-((3R,6S,9S,12R)-9-(3-guanidinopropyl)-6-isopropyl-12-methyl-2,5,8,11-tetraoxo-3-phenyl-1,4,7,10-tetraazacyclotetradecan-12-yl)isobutyramide] (Isobutyryl-[dαMeDab]RV[dPhg]; lactam 1-C) | 1.83 nM | < 1 nM | > 10 µM |  |
| CC[C@@H]1NC(=O)[C@H](CCCNC(=N)NC(C)=O)NC(=O)[C@](C)(NC(=O)C(C)C)CCNC(=O)[C@@H](c2ccccc2)NC1=O [Cpd. No. 91, N-((3R,6S,9S,12R)-9-(3-(3-acetylguanidino)propyl)-6-ethyl-12-methyl-2,5,8,11-tetraoxo-3-phenyl-1,4,7,10-tetraazacyclotetradecan-12-yl)isobutyramide] (Isobutyryl-[dαMeDab]R(Ac)[Abu][dPhg]; lactam 1-C) | 3.65 nM | < 1 nM | 0.47 µM |  |
| CC[C@@H]1NC(=O)[C@H](CCCNC2=NCCCN2)NC(=O)[C@](C)(NC(=O)C(C)C)CCNC(=O)[C@@H](c2ccccc2)NC1=O [Cpd. No. 92, N-((3R,6S,9S,12R)-6-ethyl-12-methyl-2,5,8,11-tetraoxo-3-phenyl-9-(3-((1,4,5,6-tetrahydropyrimidin-2-yl)amino)propyl)-1,4,7,10-tetraazacyclotetradecan-12-yl)isobutyramide] (Isobutyryl-[dαMeDab][Arg(Nω,Nω'-propylene)][Abu][dPhg]; lactam 1-C) | 1.86 nM | < 1 nM | 0.033 µM |  |
| CC[C@@H]1NC(=O)[C@H](CCCNC(=N)N)NC(=O)[C@](C)(NC(=O)C(C)C)CCNC(=O)[C@@H](c2ccc(OC)cc2)NC1=O [Cpd. No. 93, N-((3R,6S,9S,12R)-6-ethyl-9-(3-guanidinopropyl)-3-(4-methoxyphenyl)-12-methyl-2,5,8,11-tetraoxo-1,4,7,10-tetraazacyclotetradecan-12-yl)isobutyramide] | 1.79 nM | < 1 nM | 0.083 µM |  |
| CC[C@@H]1NC(=O)[C@H](CCCNC(=N)N)NC(=O)[C@](C)(NC(=O)C(C)C)CCNC(=O)[C@@H](c2cccc(OC)c2)NC1=O [Cpd. No. 94, N-((3R,6S,9S,12R)-6-ethyl-9-(3-guanidinopropyl)-3-(3-methoxyphenyl)-12-methyl-2,5,8,11-tetraoxo-1,4,7,10-tetraazacyclotetradecan-12-yl)isobutyramide] | 4 nM | < 1 nM | 0.56 µM |  |
| CC[C@@H]1NC(=O)[C@H](CCCNC2=NCCCN2)NC(=O)[C@](C)(NC(=O)C(C)C)CCNC(=O)[C@@H](c2ccc3ccccc3c2)NC1=O [Cpd. No. 98, N-((3R,6S,9S,12R)-6-ethyl-12-methyl-3-(naphthalen-2-yl)-2,5,8,11-tetraoxo-9-(3-((1,4,5,6-tetrahydropyrimidin-2-yl)amino)propyl)-1,4,7,10-tetraazacyclotetradecan-12-yl)isobutyramide] | 2.54 nM | < 1 nM | 0.039 µM |  |
